# Test results taken from ChEMBL document CHEMBL1144799, “Synthesis, antiviral activity, and conformational studies of a P3 aza-peptide analog of a potent macrocyclic tripeptide HCV protease inhibitor” (Bioorg Med Chem Lett, 2008).
# How the values were obtained:
# [1] = Inhibition of HCV NS3-4A protease; design: species or system Hepacivirus hominis
# [2] = test system: Hepatitis C virus; assay: Antiviral activity against HCV replicon; type: functional, organism-based, Hepacivirus hominis
Compound,IC50 [1],EC50 [2]
C=C[C@@H]1C[C@]1(NC(=O)[C@@H]1C[C@@H](Oc2cc(-c3ccccc3)nc3cc(OC)ccc23)CN1C(=O)N(NC(=O)OC(C)(C)C)C1CCCCC1)C(=O)O,3500 nM,
COc1ccc2c(O[C@@H]3C[C@H]4C(=O)N[C@]5(C(=O)O)C[C@H]5/C=C\CCCCCN(NC(=O)OC(C)(C)C)C(=O)N4C3)cc(-c3ccccc3)nc2c1,3800 nM,31 µM
COc1ccc2c(O[C@@H]3C[C@H]4C(=O)N[C@]5(C(=O)O)C[C@H]5/C=C\CCCCC[C@H](NC(=O)OC5CCCC5)C(=O)N4C3)cc(-c3csc(NC(C)C)n3)nc2c1 [CILUPREVIR],3 nM,0.0012 µM

# The next lines start with the values.
IC50 [1],EC50 [2],Compound
2100 nM,53 µM,C=C[C@@H]1C[C@]1(NC(=O)[C@@H]1C[C@@H](Oc2cc(-c3ccccc3)nc3cc(OC)ccc23)CN1C(=O)N(CC(C)C)NC(=O)OC(C)(C)C)C(=O)O
11 nM,0.077 µM,COc1ccc2c(O[C@@H]3C[C@H]4C(=O)N[C@]5(C(=O)O)C[C@H]5/C=C\CCCCC[C@H](NC(=O)OC(C)(C)C)C(=O)N4C3)cc(-c3ccccc3)nc2c1
